Results on 24 compounds are retold here after US8883782B2, “Spiro-tetracyclic ring compounds as beta-secretase modulators and methods of use” (Amgen Inc., priority 2010, dated 2014).

Read-outs that look alike come from different tables or passages of the source.

For assay [1], the target named is Beta Secretase enzyme (BACE) (Homo sapiens, UniProt P56817). As to the kind of experiment: In vitro enzymatic BACE FRET (fluorescence resonance energy transfer) assay. It is filed as biochemical. The note with it: average IC50, enzyme assay; read-out: BACE 1 FRET assay. The gist of the method: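 Fluorescence read after Tris quench (pH raised to neutrality) of a one-hour BACE reaction. Buffer: acetate 0.05 M, pH 4.2, with 100 uM genapol and 10% DMSO final; started by adding 50 nM FRET peptide substrate spanning the cleavage site.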

In assay [2] the test system is Aβ40 in conditioned medium of cells stably expressing Amyloid Precursor Protein (APP). As to the kind of experiment: In vitro BACE cell-based assay (Aβ40 in conditioned medium, sandwich ELISA). The settings on record: Homo sapiens, read-out: HEK cell assay. The method, then: In Vitro BACE Cell-Based Assay
The cell-based assay measures inhibition or reduction of Aβ40 in conditioned medium of test compound treated cells expressing amyloid precursor protein.
Cells stably expressing Amyloid Precursor Protein (APP) were plated at a density of 40K cells/well in 96 well plates (Costar). The cells were cultivated for 24 hours at 37° C. and 5% CO2 in DMEM supplemented with 10% FBS. The test compounds were then added to cells in 10-point dose response concentrations with the starting concentration being either 100 μM or 10 μM. The compounds were diluted from stock solutions in DMSO and the final DMSO concentration of the test compounds on cells was 0.1%. […] The IC50 of the compound was calculated from the percent of control or percent inhibition of Aβ 40 as a function of the concentration of the test compound.
The sandwich ELISA to detect Aβ 40 was performed in 96 well microtiter plates, which were pre-treated with goat anti-rabbit IgG (Pierce). The capture and detecting antibody pair that were used to detect Aβ 40 from cell supernatants were affinity purified pAb40 (Biosource) and biotinylated 6E10 (Signet Labs Inc.), respectively. The optimal concentration for the pAb40 antibody was 3 μg/ml in Superblock/TBS (Pierce) that was supplemented with 0.05% Tween 20 (Sigma).
Cellular supernatants were incubated with the capture antibody for 3 h at 4° C., followed by 3 wash steps in TBS-tween (0.05%). The detecting antibody incubation was for 2 h at 4° C., again followed by the wash steps as described previously. The final readout of the ELISA is Time-Resolved Fluorescence (counts per minute) using Delfia reagents Streptavidin-Europium and Enhancement solutions (Perkin Elmer) and the Victor 2 multilabel counter (Perkin Elmer).

[3] abbreviates: HEK293, average IC50, HEK cells.

Beta Secretase enzyme (BACE), sequence (P56817 46-501, species assumed): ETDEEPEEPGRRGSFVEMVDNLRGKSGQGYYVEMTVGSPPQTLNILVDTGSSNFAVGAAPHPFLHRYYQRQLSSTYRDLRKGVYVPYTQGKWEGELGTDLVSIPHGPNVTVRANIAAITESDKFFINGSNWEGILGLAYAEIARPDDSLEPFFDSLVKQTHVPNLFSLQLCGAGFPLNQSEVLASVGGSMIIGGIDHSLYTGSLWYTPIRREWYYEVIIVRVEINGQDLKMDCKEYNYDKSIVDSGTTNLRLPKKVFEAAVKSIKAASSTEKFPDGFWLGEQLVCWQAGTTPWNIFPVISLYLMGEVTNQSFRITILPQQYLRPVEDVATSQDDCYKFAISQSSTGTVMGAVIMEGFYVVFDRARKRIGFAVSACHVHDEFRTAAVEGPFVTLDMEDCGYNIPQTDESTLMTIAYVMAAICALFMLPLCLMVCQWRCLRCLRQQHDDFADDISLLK

On to `NC1=N[C@@]2(CO1)c1cc(-c3cccnc3)ccc1Oc1c2cc(-c2cccnc2)[nH]c1=O` [Example 107, (S)-2′-amino-3,7-di(pyridin-3-yl)-5′H-spiro[chromeno[2,3-c]pyridine-5,4′-oxazol]-1(2H)-one], for which the values for the IC50 in assay [1] and in assay [2] (setting [3]) were 7.7 nM and 180 nM, respectively.

Turning to `NC1=N[C@@]2(CC1(F)F)c1cc(-c3cccnc3)ccc1Oc1ncc(-c3cccnc3)cc12` [Example 112, (5S)-4′,4′-difluoro-3,7-di-3-pyridinyl-3′,4′-dihydrospiro[chromeno[2,3-b]pyridine-5,2′-pyrrol]-5′-amine], the IC50 in assay [1] stood at 63.2 nM; in assay [2] (HEK293, average IC50), 2160 nM.

Turning to `Cc1ccc(-c2cc(F)c3c(c2)[C@]2(COC(N)=N2)c2cc(-c4cccnc4F)ccc2O3)nn1` [Example 114, (S)-4′-fluoro-7′-(2-fluoropyridin-3-yl)-2′-(6-methylpyridazin-3-yl)-5H-spiro[oxazole-4,9′-xanthen]-2-amine], the IC50 in assay [1] was found to be 0.5 nM; in assay [2] (HEK293, average IC50), 4 nM.

Take `NC1=N[C@@]2(CO1)c1cc(-c3cccnc3F)ccc1Oc1c2cc(C2=CCOCC2)nc1F` [Example 130, (S)-3-(3,6-dihydro-2H-pyran-4-yl)-1-fluoro-7-(2-fluoropyridin-3-yl)-5′H-spiro[chromeno[2,3-c]pyridine-5,4′-oxazol]-2′-amine]: the results for the IC50 in assay [1] and in assay [2] (setting [3]) were 0.4 nM and 2.1 nM, respectively.

`Cc1cncc(-c2ccc3c(c2)[C@@]2(COC(N)=N2)c2cc(-c4ccnc(C#N)c4)ncc2O3)c1` [Example 141, 4-((5S)-2′-amino-7-(5-methyl-3-pyridinyl)spiro[chromeno[2,3-c]pyridine-5,4′-[1,3]oxazol]-3-yl)-2-pyridinecarbonitrile]: the IC50 turned out to be 17.4 nM in assay [1] and 114 nM in assay [2] (HEK293, average IC50).

As to `NC1=N[C@@]2(CO1)c1cc(-c3ccccc3)ccc1Oc1cnc(-c3ccccc3)cc12` [Example 142, (5S)-3,7-diphenylspiro[chromeno[2,3-c]pyridine-5,4′-[1,3]oxazol]-2′-amine], the IC50 in assay [1] worked out at 15.8 nM; in assay [2] (HEK293, average IC50), 532 nM.

On to `N#Cc1cccc(-c2ccc3c(c2)[C@@]2(COC(N)=N2)c2cc(C4=CCOCC4)ncc2O3)c1` [Example 143, 3-((5S)-2′-amino-3-(3,6-dihydro-2H-pyran-4-yl)spiro[chromeno[2,3-c]pyridine-5,4′-[1,3]oxazol]-7-yl)benzonitrile], for which the IC50 in assay [1] was 1.1 nM; in assay [2] (HEK293, average IC50), 9.4 nM.

Regarding `COc1cncc(-c2ccc3c(c2)[C@@]2(COC(N)=N2)c2cc(C4=CCOCC4)ncc2O3)c1` [Example 144, (5S)-3-(3,6-dihydro-2H-pyran-4-yl)-7-(5-methoxy-3-pyridinyl)spiro[chromeno[2,3-c]pyridine-5,4′-[1,3]oxazol]-2′-amine], the IC50 amounted to 1.6 nM in assay [1] and 8.8 nM in assay [2] (HEK293, average IC50).

Take `NC1=N[C@@]2(CO1)c1cc(-c3cccc(C(F)(F)F)c3)ccc1Oc1cnc(C3=CCOCC3)cc12` [Example 145, (5S)-3-(3,6-dihydro-2H-pyran-4-yl)-7-(3-(trifluoromethyl)phenyl)spiro[chromeno[2,3-c]pyridine-5,4′-[1,3]oxazol]-2′-amine]: the IC50 in assay [1] is 2.2 nM; in assay [2] (HEK293, average IC50), 81.9 nM.

As to `C[Si](C)(C)c1cc2c(nc1F)Oc1ccc(-c3cccnc3F)cc1[C@@]21COC(N)=N1` [Example 146, (5S)-2-fluoro-7-(2-fluoro-3-pyridinyl)-3-(trimethylsilyl)spiro[chromeno[2,3-b]pyridine-5,4′-[1,3]oxazol]-2′-amine], the IC50 in assay [1] was 12.3 nM; in assay [2] (HEK293, average IC50), 169 nM.

Turning to `NC1=NC2(CO1)c1cc(-c3cccnc3F)ccc1Oc1nc(F)c(-c3cccnc3F)cc12` (stereo not drawn) [Example 147, 2-fluoro-3,7-bis(2-fluoro-3-pyridinyl)spiro[chromeno[2,3-b]pyridine-5,4′-[1,3]oxazol]-2′-amine], the IC50 in assay [1] amounted to 22.3 nM; in assay [2] (HEK293, average IC50) it was 124 nM.

For `CC(C)(C)C#Cc1cc2c(nc1F)Oc1ccc(-c3cccnc3F)cc1C21COC(N)=N1` (stereo not drawn) [Example 148, 3-(3,3-dimethyl-1-butyn-1-yl)-2-fluoro-7-(2-fluoro-3-pyridinyl)spiro[chromeno[2,3-b]pyridine-5,4′-[1,3]oxazol]-2′-amine], the IC50 in assay [1] was 0.7 nM; in assay [2] (HEK293, average IC50) it was 21.4 nM.

Regarding `CC1(C#Cc2cc3c(nc2F)Oc2ccc(-c4cccnc4F)cc2C32COC(N)=N2)COC1` (stereo not drawn) [Example 149, 2-fluoro-7-(2-fluoro-3-pyridinyl)-3-((3-methyl-3-oxetanyl)ethynyl)spiro[chromeno[2,3-b]pyridine-5,4′-[1,3]oxazol]-2′-amine], the IC50 amounted to 0.8 nM in assay [1] and 7.6 nM in assay [2] (HEK293, average IC50).

As to `NC1=NC2(CO1)c1cc(-c3cccnc3F)ccc1Oc1nc(F)c(C3=CCOCC3)cc12` (stereo not drawn) [Example 150, 3-(3,6-dihydro-2H-pyran-4-yl)-2-fluoro-7-(2-fluoro-3-pyridinyl)spiro[chromeno[2,3-b]pyridine-5,4′-[1,3]oxazol]-2′-amine], the IC50 in assay [1] stood at 2.6 nM; in assay [2] (HEK293, average IC50), 48.2 nM.

For the compound `NC1=NC2(CO1)c1cc(-c3cccnc3F)ccc1Oc1nc(F)c(-c3ccnc(F)c3)cc12` (stereo not drawn) [Example 151, 2-fluoro-7-(2-fluoro-3-pyridinyl)-3-(2-fluoro-4-pyridinyl)spiro[chromeno[2,3-b]pyridine-5,4′-[1,3]oxazol]-2′-amine], the IC50 was 1.3 nM in assay [1] and 50.8 nM in assay [2] (HEK293, average IC50).

As for `CC1(C#Cc2cc3c(cn2)Oc2ccc(-c4cncc(F)c4)cc2[C@@]32COC(N)=N2)COC1` [Example 153, (5S)-7-(5-fluoro-3-pyridinyl)-3-((3-methyl-3-oxetanyl)ethynyl)spiro[chromeno[2,3-c]pyridine-5,4′-[1,3]oxazol]-2′-amine], the IC50 in assay [1] was 9.2 nM; in assay [2] (HEK293, average IC50) it was 46.2 nM.

Consider `CC1(C#Cc2cc3c(cn2)Oc2ccc(-c4cccnc4)cc2[C@@]32COC(N)=N2)COC1` [Example 154, (5S)-3-((3-methyl-3-oxetanyl)ethynyl)-7-(3-pyridinyl)spiro[chromeno[2,3-c]pyridine-5,4′-[1,3]oxazol]-2′-amine], for which the IC50 is 1.4 nM in assay [1] and 6.5 nM in assay [2] (HEK293, average IC50).

Take `CC1(C#Cc2cc3c(cn2)Oc2ccc(-c4ccccc4)cc2[C@@]32COC(N)=N2)COC1` [Example 155, (5S)-3-((3-methyl-3-oxetanyl)ethynyl)-7-phenylspiro[chromeno[2,3-c]pyridine-5,4′-[1,3]oxazol]-2′-amine]: the IC50 in assay [1] turned out to be 17.3 nM; in assay [2] (HEK293, average IC50), 173 nM.

As for `CC1(C#Cc2cc3c(cn2)Oc2ccc(-c4ccc(F)nc4)cc2[C@@]32COC(N)=N2)COC1` [Example 156, (5S)-7-(6-fluoro-3-pyridinyl)-3-((3-methyl-3-oxetanyl)ethynyl)spiro[chromeno[2,3-c]pyridine-5,4′-[1,3]oxazol]-2′-amine], the IC50 amounted to 10.9 nM in assay [1] and 45.9 nM in assay [2] (HEK293, average IC50).

In the case of `CC1(C#Cc2cc3c(cn2)Oc2ccc(-c4cccc(Cl)c4)cc2[C@@]32COC(N)=N2)COC1` [Example 157, (5S)-7-(3-chlorophenyl)-3-((3-methyl-3-oxetanyl)ethynyl)spiro[chromeno[2,3-c]pyridine-5,4′-[1,3]oxazol]-2′-amine], the IC50 in assay [1] was found to be 0.8 nM; in assay [2] (HEK293, average IC50), 30.2 nM.

Take `CC1(C#Cc2cc3c(cn2)Oc2ccc(-c4cc(Cl)cnc4F)cc2[C@@]32COC(N)=N2)COC1` [Example 158, (5S)-7-(5-chloro-2-fluoro-3-pyridinyl)-3-((3-methyl-3-oxetanyl)ethynyl)spiro[chromeno[2,3-c]pyridine-5,4′-[1,3]oxazol]-2′-amine]: the IC50 is 1 nM in assay [1] and 11.6 nM in assay [2] (HEK293, average IC50).

Consider `NC1=N[C@@]2(CO1)c1cc(C#CC3CC3)ccc1Oc1cnc(C3=CCOCC3)cc12` [Example 159, (5S)-7-(cyclopropylethynyl)-3-(3,6-dihydro-2H-pyran-4-yl)spiro[chromeno[2,3-c]pyridine-5,4′-[1,3]oxazol]-2′-amine], for which the IC50 in assay [1] amounted to 4.9 nM; in assay [2] (HEK293, average IC50), 84 nM.

Regarding `CC1(C#Cc2ccc3c(c2)[C@@]2(COC(N)=N2)c2cc(C4=CCOCC4)ncc2O3)COC1` [Example 160, (5S)-3-(3,6-dihydro-2H-pyran-4-yl)-7-((3-methyl-3-oxetanyl)ethynyl)spiro[chromeno[2,3-c]pyridine-5,4′-[1,3]oxazol]-2′-amine], the IC50 in assay [1] turned out to be 22 nM; in assay [2] (HEK293, average IC50) it was 91 nM.

With `CC(C)(C)C#Cc1ccc2c(c1)[C@@]1(COC(N)=N1)c1cc(C3=CCOCC3)ncc1O2` [Example 161, (5S)-3-(3,6-dihydro-2H-pyran-4-yl)-7-(3,3-dimethyl-1-butyn-1-yl)spiro[chromeno[2,3-c]pyridine-5,4′-[1,3]oxazol]-2′-amine], the IC50 stood at 9.7 nM in assay [1] and 108 nM in assay [2] (HEK293, average IC50).
